Reference: US20240041042A1, “1-(PYRIDYL)-5-AZINYLPYRAZOLE DERIVATIVES, AND THEIR USE FOR CONTROL OF UNDESIRED PLANT GROWTH” (Bayer Aktiengesellschaft, priority 2020, published 2024)
Read-outs that look alike come from different tables or passages of the source.

Tests used:
Type in all cases: in vivo
[1] = system: Abutilon theophrasti (ABUTH); assay: Pre-emergence herbicidal action against ABUTH; settings: Dosage column 320 g/ha (title prints 3200 g/ha); scored visually after about 3 weeks; 100% = plants have died
Outline: (§1)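 Pre-emergence soil-surface spray, WP/EC formulation, 0.5% additive, 600 l/ha water, rates of 320 g/ha or lower. Greenhouse, ~3 wk. Visual score, % of untreated control (100% = plants dead, 0% = like control).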

[2] = system: Alopecurus myosuroides (ALOMY); assay: Pre-emergence herbicidal action against ALOMY; settings: scored visually after about 3 weeks, 100% = plants have died
Outline: as §1

[3] = system: Amaranthus retroflexus (AMARE); assay: Pre-emergence herbicidal action against AMARE; settings: visual scoring after about 3 weeks vs untreated controls
Outline: as §1

[4] = system: Avena fatua (AVEFA); assay: Pre-emergence herbicidal action against AVEFA; settings: visual scoring after about 3 weeks vs untreated controls
Outline: as §1

[5] = system: Digitaria sanguinalis (DIGSA); assay: Pre-emergence herbicidal action against DIGSA
Outline: as §1

[6] = system: Echinochloa crus-galli (ECHCG); assay: Pre-emergence herbicidal action against ECHCG
Outline: as §1

[7] = system: Lolium rigidum (LOLRI); assay: Pre-emergence herbicidal action against LOLRI
Outline: as §1

[8] = system: Matricaria inodora (MATIN); assay: Pre-emergence herbicidal action against MATIN; settings: dosage 320 g/ha
Outline: as §1

[9] = system: Pharbitis purpurea (PHBPU); assay: Pre-emergence herbicidal action against PHBPU; settings: dosage 320 g/ha
Outline: as §1

[10] = system: Polygonum convolvulus (POLCO); assay: Pre-emergence herbicidal action against POLCO
Outline: as §1

[11] = system: Setaria viridis (SETVI); assay: Pre-emergence herbicidal action against SETVI
Outline: as §1

[12] = system: Verconica persica (VERPE); assay: Pre-emergence herbicidal action against VERPE; settings: dosage 320 g/ha
Outline: as §1

[13] = system: Viola tricolor (VIOTR); assay: Pre-emergence herbicidal action against VIOTR
Outline: as §1

[14] = system: Zea mays (ZEAMX); settings: pre-emergence, 80 g/ha, crop plant compatibility, in comparison to untreated controls
Outline: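 Crop injury rated visually in percent against untreated plants roughly 3 weeks after treatment (0% no effect, 100% plants dead). Compounds, as WP or EC with 0.5% additive in 600 l/ha water, were applied to the covering soil right after sowing; greenhouse growth. Suffixes a, b, c denote different dosages.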

[15] = system: Abutilon theophrasti (ABUTH); assay: Post-emergence herbicidal action against ABUTH; settings: visual rating about 3 weeks after treatment vs untreated controls (100% = plants have died, 0% = like control plants)
Outline: (§2)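 Greenhouse plants sprayed at the one-leaf stage, 2–3 weeks after sowing, with WP or EC formulations plus 0.5% additive at 600 l/ha water. Activity rated visually after about 3 weeks versus untreated controls (100% = dead, 0% = like control), at 320 g/ha or lower.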

[16] = system: Alopecurus myosuroides (ALOMY); assay: Post-emergence herbicidal action against ALOMY; settings: visual rating about 3 weeks after treatment vs untreated controls (100% = plants have died, 0% = like control plants)
Outline: as §2

[17] = system: Amaranthus retroflexus (AMARE); assay: Post-emergence herbicidal action against AMARE
Outline: as §2

[18] = system: Digitaria sanguinalis (DIGSA); assay: Post-emergence herbicidal action against DIGSA; settings: visual rating about 3 weeks after treatment
Outline: as §2

[19] = system: Echinochloa crus-galli (ECHCG); assay: Post-emergence herbicidal action against ECHCG
Outline: as §2

[20] = system: Pharbitis purpurea (PHBPU); assay: Post-emergence herbicidal action against PHBPU
Outline: as §2

[21] = system: Polygonum convolvulus (POLCO); assay: Post-emergence herbicidal action against POLCO
Outline: as §2

[22] = system: Setaria viridis (SETVI); assay: Post-emergence herbicidal action against SETVI
Outline: as §2

[23] = system: Viola tricolor (VIOTR); assay: Post-emergence herbicidal action against VIOTR
Outline: as §2

[24] = system: Oryza sativa (ORYSA); settings: crop plant compatibility
Outline: (§3)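 Visual rating (% effect vs. untreated plants; 100% = plant death) made about 3 weeks after treatment. Plants had been sprayed at one-leaf stage, 2–3 weeks post-sowing, with aqueous WP/EC preparations containing 0.5% additive, 600 l/ha water volume; a, b, c mark dose levels.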

[25] = system: Zea mays (ZEAMX); settings: 20 g/ha, ZEAMX, effect in comparison to untreated controls
Outline: as §3

[26] = system: Avena fatua (AVEFA); assay: Post-emergence herbicidal action against AVEFA; settings: visual rating about 3 weeks after treatment
Outline: as §2

[27] = system: Lolium rigidum (LOLRI); assay: Post-emergence herbicidal action against LOLRI; settings: dosage 320 g/ha
Outline: as §2

[28] = system: Matricaria inodora (MATIN); assay: Post-emergence herbicidal action against MATIN
Outline: as §2

[29] = system: Verconica persica (VERPE); assay: Post-emergence herbicidal action against VERPE
Outline: as §2

[30] = 80 g/ha, visual scoring after about 3 weeks vs untreated controls
[31] = 80 g/ha, visual rating about 3 weeks after treatment vs untreated controls (100% = plants have died, 0% = like control plants)

## CN(C)S(=O)(=O)NC(=O)COc1nn(-c2ncccc2F)c(-c2ccc(F)nc2)c1Br [Example I-36]
[1]
  Pre-emergence action against ABUTH: 80%
[2]; 80 g/ha
  Pre-emergence action against ALOMY: 100%
[2]; 320 g/ha
  Pre-emergence action against ALOMY: 100%
[3]; 320 g/ha
  Pre-emergence action against AMARE in %: 100%
[4]; 320 g/ha
  Pre-emergence action against AVEFA in %: 90%
[5]; [30]
  Pre-emergence action against DIGSA in %: 100%
[5]; dosage 320 g/ha
  Pre-emergence action against DIGSA in %: 100%
[6]; dosage 320 g/ha
  Pre-emergence action against ECHCG in %: 100%
[7]; dosage 320 g/ha
  Pre-emergence action against LOLRI in %: 100%
[8]
  Pre-emergence action against MATIN in %: 100%
[9]
  Pre-emergence action against PHBPU in %: 100%
[10]; dosage 80 g/ha
  Pre-emergence action against POLCO in %: 80%
[10]; dosage 320 g/ha
  Pre-emergence action against POLCO in %: 90%
[11]; dosage 80 g/ha
  Pre-emergence action against SETVI in %: 100%
[11]; dosage 320 g/ha
  Pre-emergence action against SETVI in %: 100%
[12]
  Pre-emergence action against VERPE in %: 100%
[13]; 320 g/ha, Viola tricolor
  Pre-emergence action against VIOTR in %: 100%
[13]; dosage 80 g/ha
  Pre-emergence action against VIOTR in %: 100%
[14]
  Pre-emergence action against ZEAMX in %: 0%
[15]; 80 g/ha
  Post-emergence action against ABUTH in %: 80%
[16]; 80 g/ha
  Post-emergence action against ALOMY in %: 90%
[17]; [31]
  Post-emergence action against AMARE in %: 80%
[18]; 80 g/ha
  Post-emergence action against DIGSA in %: 90%
[19]; dosage 80 g/ha
  Post-emergence action against ECHCG in %: 90%
[20]; dosage 80 g/ha
  Post-emergence action against PHBPU in %: 80%
[21]; dosage 80 g/ha
  Post-emergence action against POLCO in %: 80%
[22]; dosage 80 g/ha
  Post-emergence action against SETVI in %: 80%
[23]; 80 g/ha
  Post-emergence action against VIOTR in %: 90%
[24]; 20 g/ha, effect vs untreated controls
  Post-emergence action against ORYSA in %: 0%
[24]; 80 g/ha, effect in comparison to untreated controls
  Post-emergence action against ORYSA in %: 0%
[25]
  Post-emergence action against ZEAMX in % (crop plant compatibility): 20%

## O=C(O)COc1nn(-c2ncccc2F)c(-c2ccc(F)nc2)c1Br [Example I-08]
[1]
  Pre-emergence action against ABUTH: 80%
[2]; 80 g/ha
  Pre-emergence action against ALOMY: 100%
[2]; 320 g/ha
  Pre-emergence action against ALOMY: 100%
[3]; 80 g/ha
  Pre-emergence action against AMARE in %: 100%
[3]; 320 g/ha
  Pre-emergence action against AMARE in %: 100%
[4]; 80 g/ha
  Pre-emergence action against AVEFA in %: 80%
[4]; 320 g/ha
  Pre-emergence action against AVEFA in %: 90%
[5]; [30]
  Pre-emergence action against DIGSA in %: 100%
[5]; dosage 320 g/ha
  Pre-emergence action against DIGSA in %: 100%
[6]; dosage 80 g/ha
  Pre-emergence action against ECHCG in %: 80%
[6]; dosage 320 g/ha
  Pre-emergence action against ECHCG in %: 100%
[7]; dosage 80 g/ha
  Pre-emergence action against LOLRI in %: 80%
[7]; dosage 320 g/ha
  Pre-emergence action against LOLRI in %: 100%
[8]
  Pre-emergence action against MATIN in %: 100%
[9]
  Pre-emergence action against PHBPU in %: 80%
[10]; dosage 80 g/ha
  Pre-emergence action against POLCO in %: 80%
[10]; dosage 320 g/ha
  Pre-emergence action against POLCO in %: 100%
[11]; dosage 80 g/ha
  Pre-emergence action against SETVI in %: 90%
[11]; dosage 320 g/ha
  Pre-emergence action against SETVI in %: 100%
[12]
  Pre-emergence action against VERPE in %: 100%
[13]; 320 g/ha, Viola tricolor
  Pre-emergence action against VIOTR in %: 100%
[13]; dosage 80 g/ha
  Pre-emergence action against VIOTR in %: 100%
[15]; 80 g/ha
  Post-emergence action against ABUTH in %: 80%
[15]; 320 g/ha
  Post-emergence action against ABUTH in %: 90%
[16]; 80 g/ha
  Post-emergence action against ALOMY in %: 100%
[16]; 320 g/ha
  Post-emergence action against ALOMY in %: 100%
[17]; [31]
  Post-emergence action against AMARE in %: 80%
[17]; 320 g/ha, visual rating about 3 weeks after treatment
  Post-emergence action against AMARE in %: 90%
[26]; 80 g/ha
  Post-emergence action against AVEFA in %: 80%
[26]; 320 g/ha
  Post-emergence action against AVEFA in %: 90%
[18]; 320 g/ha
  Post-emergence action against DIGSA in %: 90%
[19]; dosage 80 g/ha
  Post-emergence action against ECHCG in %: 80%
[19]; dosage 320 g/ha
  Post-emergence action against ECHCG in %: 90%
[27]
  Post-emergence action against LOLRI in %: 90%
[28]; dosage 80 g/ha
  Post-emergence action against MATIN in %: 90%
[28]; dosage 320 g/ha
  Post-emergence action against MATIN in %: 90%
[20]; dosage 80 g/ha
  Post-emergence action against PHBPU in %: 80%
[20]; dosage 320 g/ha
  Post-emergence action against PHBPU in %: 80%
[21]; dosage 80 g/ha
  Post-emergence action against POLCO in %: 90%
[21]; dosage 320 g/ha
  Post-emergence action against POLCO in %: 90%
[22]; dosage 80 g/ha
  Post-emergence action against SETVI in %: 80%
[22]; dosage 320 g/ha
  Post-emergence action against SETVI in %: 90%
[29]; 320 g/ha, VERPE
  Post-emergence action against VERPE in %: 90%
[29]; dosage 80 g/ha
  Post-emergence action against VERPE in %: 90%
[23]; 80 g/ha
  Post-emergence action against VIOTR in %: 80%
[23]; 320 g/ha
  Post-emergence action against VIOTR in %: 80%
